Laboratory results published in patent US20230233569A1 (Revolution Medicines, Inc., priority 2020, published 2023).
Where two headings read alike, the source gives them in different places.

Tests used:
KRAS G12S = KRAS G12S (Homo sapiens, UniProt P01116+P62937, G12S); experiment: Disruption of BRAF RBD interaction with Ras (FRET / MOA assay, with Cyclophilin A); type: biochemical
How it was run: (§1)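 TR-FRET: nucleotide-loaded K-Ras mutant or WT with Cyclophilin A and BRAF RBD, compound 10-point 3-fold from 30 μM final, 3 h at 25° C, then anti-His Eu (10 nM) and anti-GST APC (50 nM) for 1.5 h. Decreased FRET ratio versus DMSO gives IC50.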

KRAS G12D = KRAS G12D (Homo sapiens, UniProt P01116+P62937, G12D); experiment: as above; type: biochemical
Chain of KRAS G12D (P01116 1-169 isoform P01116-2 G12D limits assumed): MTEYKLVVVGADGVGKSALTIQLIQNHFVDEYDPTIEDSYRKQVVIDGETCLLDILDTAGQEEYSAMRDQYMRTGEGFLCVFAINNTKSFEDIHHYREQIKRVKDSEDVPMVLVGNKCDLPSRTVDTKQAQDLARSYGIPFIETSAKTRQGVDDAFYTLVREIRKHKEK
Chain of KRAS G12D (P62937 whole entry): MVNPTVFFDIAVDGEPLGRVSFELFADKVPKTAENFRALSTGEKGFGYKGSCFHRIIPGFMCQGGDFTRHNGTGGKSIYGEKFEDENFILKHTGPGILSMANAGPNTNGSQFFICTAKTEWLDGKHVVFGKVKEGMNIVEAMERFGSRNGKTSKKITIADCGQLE
How it was run: as §1

KRAS G13C = KRAS G13C (Homo sapiens, UniProt P01116+P62937, G13C); experiment: as above; type: biochemical
Chain of KRAS G13C (P01116 1-169 isoform P01116-2 G13C): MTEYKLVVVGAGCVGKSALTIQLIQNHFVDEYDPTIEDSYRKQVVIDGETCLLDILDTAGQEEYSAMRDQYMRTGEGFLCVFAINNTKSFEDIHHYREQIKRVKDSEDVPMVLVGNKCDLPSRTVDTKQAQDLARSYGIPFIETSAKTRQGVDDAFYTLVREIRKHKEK
Chain of KRAS G13C (P62937 whole entry): as the sequence (P62937 whole entry) above
How it was run: as §1

KRAS G13D = KRAS G13D (Homo sapiens, UniProt P01116+P62937, G13D); experiment: as above; type: biochemical
Chain of KRAS G13D (P01116 1-169 isoform P01116-2 G13D limits assumed): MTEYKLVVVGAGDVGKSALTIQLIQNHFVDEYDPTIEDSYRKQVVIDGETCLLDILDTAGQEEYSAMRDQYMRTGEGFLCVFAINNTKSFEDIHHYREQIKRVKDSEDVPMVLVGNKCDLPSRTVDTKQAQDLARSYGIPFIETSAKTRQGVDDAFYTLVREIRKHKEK
Chain of KRAS G13D (P62937 whole entry): as the sequence (P62937 whole entry) above
How it was run: as §1

KRAS G12V = KRAS G12V (Homo sapiens, UniProt P01116+P62937, G12V); experiment: as above; type: biochemical
Chain of KRAS G12V (P01116 1-169 isoform P01116-2 G12V limits assumed): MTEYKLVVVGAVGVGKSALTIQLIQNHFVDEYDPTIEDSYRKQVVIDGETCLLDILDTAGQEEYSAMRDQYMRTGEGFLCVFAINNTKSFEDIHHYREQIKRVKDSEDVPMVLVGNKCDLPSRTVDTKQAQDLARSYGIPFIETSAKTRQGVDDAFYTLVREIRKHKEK
Chain of KRAS G12V (P62937 whole entry): as the sequence (P62937 whole entry) above
How it was run: as §1

NRAS G12C = NRAS G12C (Homo sapiens, UniProt P01111+P62937, G12C); experiment: as above; type: biochemical
Chain of NRAS G12C (P01111 whole entry G12C): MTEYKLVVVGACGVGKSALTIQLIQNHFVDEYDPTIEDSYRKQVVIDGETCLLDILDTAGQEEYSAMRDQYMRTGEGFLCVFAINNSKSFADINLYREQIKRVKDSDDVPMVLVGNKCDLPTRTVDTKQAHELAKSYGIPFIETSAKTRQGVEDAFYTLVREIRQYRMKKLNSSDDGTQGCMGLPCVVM
Chain of NRAS G12C (P62937 whole entry): as the sequence (P62937 whole entry) above

KRAS WT = KRAS WT (Homo sapiens, UniProt P01116+P62937); experiment: as above; type: biochemical
Chain of KRAS WT (P01116 1-169 isoform P01116-2 limits assumed): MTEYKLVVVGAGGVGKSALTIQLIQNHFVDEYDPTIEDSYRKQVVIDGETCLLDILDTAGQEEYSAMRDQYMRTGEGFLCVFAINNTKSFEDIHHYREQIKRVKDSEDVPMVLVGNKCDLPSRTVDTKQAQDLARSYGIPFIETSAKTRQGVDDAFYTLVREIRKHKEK
Chain of KRAS WT (P62937 whole entry): as the sequence (P62937 whole entry) above
How it was run: as §1

KRAS G12C = KRAS G12C (Homo sapiens, UniProt P01116+P62937, G12C); experiment: as above; type: biochemical
Chain of KRAS G12C (P01116 1-169 isoform P01116-2 G12C): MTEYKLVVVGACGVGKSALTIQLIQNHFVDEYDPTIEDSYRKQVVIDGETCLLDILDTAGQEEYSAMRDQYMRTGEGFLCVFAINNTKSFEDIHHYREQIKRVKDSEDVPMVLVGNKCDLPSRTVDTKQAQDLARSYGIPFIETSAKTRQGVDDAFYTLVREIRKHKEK
Chain of KRAS G12C (P62937 whole entry): as the sequence (P62937 whole entry) above
How it was run: as §1

Capan-1 (K-Ras G12V) = experiment: CellTiter-Glo cell viability assay, 5-day treatment; type: cell-based; conditions: Homo sapiens, CAPAN-1, 120 h, 5-day treatment; read-out: Capan-1 Cell Viability assay data (K-Ras G12V, IC50)
How it was run: (§2)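 Compounds were dispensed directly onto seeded cells and incubated for 5 days, then plates were equilibrated to room temperature for about 30 minutes before luminescence reading. Signals were expressed as percent of the mean DMSO control and fitted with a four-parameter logistic curve.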

NCI-H358 (K-Ras G12C) = experiment: as above; type: cell-based; conditions: Homo sapiens, NCI-H358, 120 h, 5-day treatment; read-out: H358 Cell Viability assay data (K-Ras G12C, IC50)
How it was run: as §2

KRAS Q61H = KRAS Q61H (Homo sapiens, UniProt P01116+P62937, Q61H); experiment: Disruption of BRAF RBD interaction with Ras (FRET / MOA assay, with Cyclophilin A); type: biochemical
Chain of KRAS Q61H (P01116 1-169 isoform P01116-2 Q61H limits assumed): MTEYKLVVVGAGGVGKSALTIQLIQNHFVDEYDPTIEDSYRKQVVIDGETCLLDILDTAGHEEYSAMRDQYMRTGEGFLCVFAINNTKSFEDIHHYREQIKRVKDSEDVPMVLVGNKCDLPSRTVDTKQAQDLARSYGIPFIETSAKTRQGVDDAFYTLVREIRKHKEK
Chain of KRAS Q61H (P62937 whole entry): as the sequence (P62937 whole entry) above
How it was run: (§3)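 TR-FRET in 25 mM HEPES pH 7.3, 100 mM NaCl, 5 mM MgCl2, 0.1% BSA: 25 μM Cyclophilin A, 12.5 nM His6-Ras-GMPPNP, 50 nM GST-BRAF RBD with compound (10-point 3-fold series from 30 μM), 3 h at 25° C. Anti-His Eu/anti-GST APC added, 1.5 h more; IC50 from decreased FRET ratio versus DMSO.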

NRAS WT = NRAS WT (Homo sapiens, UniProt P01111+P62937); experiment: as above; type: biochemical
Chain of NRAS WT (P01111 whole entry): as the sequence (P01111 whole entry G12C) above, with C12G counted along it
Chain of NRAS WT (P62937 whole entry): as the sequence (P62937 whole entry) above
How it was run: as §3

NRAS Q61R = NRAS Q61R (Homo sapiens, UniProt P01111+P62937, Q61R); experiment: as above; type: biochemical
Chain of NRAS Q61R (P01111 whole entry Q61R): as the sequence (P01111 whole entry G12C) above, with C12G, Q61R counted along it
Chain of NRAS Q61R (P62937 whole entry): as the sequence (P62937 whole entry) above
How it was run: as §3

NRAS Q61K = NRAS Q61K (Homo sapiens, UniProt P01111+P62937, Q61K); experiment: as above; type: biochemical
Chain of NRAS Q61K (P01111 whole entry Q61K): as the sequence (P01111 whole entry G12C) above, with C12G, Q61K counted along it
Chain of NRAS Q61K (P62937 whole entry): as the sequence (P62937 whole entry) above
How it was run: as §3

[1] = read-out: KRAS G12S FRET data, IC50
[2] = read-out: KRAS G12D FRET data, IC50
[3] = read-out: KRAS G13C FRET data, IC50
[4] = KRAS G13D, read-out: KRAS G13D FRET data IC50
[5] = KRAS G12V, read-out: KRAS G12V FRET data IC50
[6] = NRAS G12C, read-out: NRAS G12C FRET data IC50
[7] = KRAS WT, read-out: KRAS WT FRET data IC50
[8] = read-out: KRAS G12C FRET data, IC50
[9] = KRAS Q61H, read-out: KRAS Q61H FRET data IC50
[10] = NRAS WT, read-out: NRAS WT FRET data IC50
[11] = NRAS Q61R, read-out: NRAS Q61R FRET data IC50
[12] = NRAS Q61K, read-out: NRAS Q61K FRET data IC50

Chain of KRAS G12S (P01116 1-169 isoform P01116-2 G12S limits assumed): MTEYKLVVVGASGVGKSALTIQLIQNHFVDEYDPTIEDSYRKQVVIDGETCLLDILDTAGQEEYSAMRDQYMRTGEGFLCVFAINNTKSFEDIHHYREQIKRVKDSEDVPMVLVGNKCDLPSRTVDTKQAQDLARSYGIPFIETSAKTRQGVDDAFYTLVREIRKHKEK
Chain of KRAS G12S (P62937 whole entry): as the sequence (P62937 whole entry) above

Row | SMILES | IC50 (KRAS G12S; [1]) [µM] | IC50 (KRAS G12D; [2]) [µM] | IC50 (KRAS G13C; [3]) [µM] | IC50 (KRAS G13D; [4]) [µM] | IC50 (KRAS G12V; [5]) [µM] | IC50 (NRAS G12C; [6]) [µM] | IC50 (KRAS WT; [7]) [µM] | IC50 (KRAS G12C; [8]) [µM] | IC50 (NCI-H358 (K-Ras G12C)) [µM] | IC50 (KRAS Q61H; [9]) [µM] | IC50 (NRAS WT; [10]) [µM] | IC50 (NRAS Q61R; [11]) [µM] | IC50 (NRAS Q61K; [12]) [µM] | IC50 (Capan-1 (K-Ras G12V)) [µM] | further results
1 | CCn1c(-c2cccnc2[C@H](C)OC)c2c3cc(ccc31)-c1csc(n1)C[C@H](NC(=O)[C@H](C(C)C)N(C)C(=O)N1CC[C@]3(CCN(C)C3=O)C1)C(=O)N1CCC[C@H](N1)C(=O)OCC(C)(C)C2 (single isomer, unassigned) [Example A461] | 1 to 10 | 1 to 10 | 1 to 10 | 1 to 10 | 1 to 10 | 0.1 to 1 | 0.1 to 1 | 0.1 to 1 | 0.1 to 1 | 0.1 to 1 | 1 to 10 | 0.1 to 1 | 0.1 to 1 | 0.1 to 1 | –
2 | CCn1c(-c2cccnc2[C@H](C)OC)c2c3cc(ccc31)-c1csc(n1)C[C@H](NC(=O)[C@H](C(C)C)N(C)C(=O)N1CC([C@@H](C)CO)C1)C(=O)N1CCC[C@H](N1)C(=O)OCC(C)(C)C2 (single isomer, unassigned) [Example A487] | 0.1 to 1 | 0.1 to 1 | 0.1 to 1 | 0.1 to 1 | 0.01 to 0.1 | 0.01 to 0.1 | 0.01 to 0.1 | 0.01 to 0.1 | < 0.01 | 0.01 to 0.1 | 0.01 to 0.1 | 0.01 to 0.1 | 0.01 to 0.1 | 0.01 to 0.1 | –
3 | CCn1c(-c2cccnc2[C@H](C)OC)c2c3cc(ccc31)-c1csc(n1)C[C@H](NC(=O)[C@H](C(C)C)N(C)C(=O)N1CC[C@@]3(CCN(C)C3=O)C1)C(=O)N1CCC[C@H](N1)C(=O)OCC(C)(C)C2 (single isomer, unassigned) [Example A495] | 0.1 to 1 | 1 to 10 | 0.1 to 1 | 1 to 10 | 0.1 to 1 | 0.1 to 1 | 0.1 to 1 | 0.1 to 1 | 0.01 to 0.1 | 0.1 to 1 | 0.1 to 1 | 0.1 to 1 | 0.1 to 1 | 0.1 to 1 | –

More lines, main results first:

Row | IC50 (KRAS G12S; [1]) [µM] | IC50 (KRAS G12D; [2]) [µM] | IC50 (KRAS G13C; [3]) [µM] | IC50 (KRAS G13D; [4]) [µM] | IC50 (KRAS G12V; [5]) [µM] | IC50 (NRAS G12C; [6]) [µM] | IC50 (KRAS WT; [7]) [µM] | IC50 (KRAS G12C; [8]) [µM] | IC50 (NCI-H358 (K-Ras G12C)) [µM] | IC50 (KRAS Q61H; [9]) [µM] | IC50 (NRAS WT; [10]) [µM] | IC50 (NRAS Q61R; [11]) [µM] | IC50 (NRAS Q61K; [12]) [µM] | SMILES | IC50 (Capan-1 (K-Ras G12V)) [µM] | further results
4 | 1 to 10 | 1 to 10 | 0.1 to 1 | 1 to 10 | 1 to 10 | 0.1 to 1 | 0.1 to 1 | 0.1 to 1 | 0.1 to 1 | 0.1 to 1 | 0.1 to 1 | 0.1 to 1 | 0.1 to 1 | CCn1c(-c2cc(N3CCN(C)CC3)cnc2[C@H](C)OC)c2c3cc(ccc31)-c1csc(n1)C[C@H](NC(=O)[C@H](C(C)C)N(C)C(=O)[C@H]1CCNC1=O)C(=O)N1CCC[C@H](N1)C(=O)OCC(C)(C)C2 (single isomer, unassigned) [Example A449] | 0.1 to 1 | –
5 | – | – | – | – | – | – | – | – | 1 to 10 | – | – | – | – | CCn1c(-c2cnccc2COC)c2c3cc(ccc31)-c1cc(O)cc(c1)C[C@H](NC(=O)[C@H](C(C)C)N(C)C(=O)[C@H]1CCN(S(C)(=O)=O)C1)C(=O)N1CCC[C@H](N1)C(=O)OCC(C)(C)C2 [Example A24, (2S)—N-[(8S,14S)-22-ethyl-4-hydroxy-21-[4-(methoxymethyl)pyridin-3-yl]-18,18-dimethyl-9,15-dioxo-16-oxa-10,22,28-triazapentacyclo[18.5.2.1^2,6.1^10,14.0^23,27]nonacosa-1(26),2,4,6(29),20,23(27),24-heptaen-8-yl]-2-{1-[(3S)-1-methanesulfonylpyrrolidin-3-yl]-N-methylformamido}-3-methylbutanamide] | 1 to 10 | IC50 (KRAS G12S; KRAS G12S FRET data, IC50): 0.1 to 1 µM; IC50 (KRAS G12D; KRAS G12D FRET data, IC50): 1 to 10 µM; IC50 (KRAS G13C; KRAS G13C FRET data, IC50): 0.1 to 1 µM; IC50 (KRAS G13D; KRAS G13D FRET data IC50, KRAS G13D): 0.1 to 1 µM; IC50 (KRAS G12V; KRAS G12V FRET data IC50, KRAS G12V): 0.1 to 1 µM; IC50 (NRAS G12C; NRAS G12C FRET data IC50, NRAS G12C): 0.1 to 1 µM; IC50 (KRAS WT; KRAS WT FRET data IC50, KRAS WT): 0.1 to 1 µM; IC50 (KRAS G12C; KRAS G12C FRET data, IC50): 0.1 to 1 µM; IC50 (KRAS Q61H; KRAS Q61H FRET data IC50, KRAS Q61H): 0.01 to 0.1 µM; IC50 (NRAS WT; NRAS WT FRET data IC50, NRAS WT): 0.1 to 1 µM; IC50 (NRAS Q61R; NRAS Q61R FRET data IC50, NRAS Q61R): 0.1 to 1 µM; IC50 (NRAS Q61K; NRAS Q61K FRET data IC50, NRAS Q61K): 0.1 to 1 µM
